Results as given in patent publication US8614200B2, “Compounds, compositions and methods for treating ocular conditions” (Chimerix, Inc., priority 2009, dated 2013).

Experiments:
Assay type in all cases: cell-based
[1] = tested on: CMV; assay: in vitro antiviral activity against CMV; conditions: for EC50: Human betaherpesvirus 5, CMV, in vitro
[2] = tested on: EBV; assay: in vitro antiviral activity against EBV
[3] = tested on: HHV-6; assay: in vitro antiviral activity against HHV-6; conditions: for EC50: HHV-6, in vitro
[4] = tested on: VZV; assay: in vitro antiviral activity against VZV
[5] = tested on: HSV-1; assay: in vitro antiviral activity against HSV-1; conditions: CMX001 versus cidofovir EC50, HSV-1

| EC50 [1] [nM] | EC50 ([2]; human gammaherpesvirus 4, EBV, in vitro) [nM] | EC50 [3] [nM] | EC50 ([4]; Human alphaherpesvirus 3, VZV, in vitro) [nM] | SMILES | Enhanced Activity ([1]; CMX001 versus cidofovir EC50, CMV) | Enhanced Activity ([2]; CMX001 versus cidofovir EC50, EBV) | Enhanced Activity ([3]; CMX001 versus cidofovir EC50, HHV-6) | Enhanced Activity [5] | Enhanced Activity ([4]; CMX001 versus cidofovir EC50, VZV) |
| --- | --- | --- | --- | --- | --- | --- | --- | --- | --- |
| 400 | > 108000 | 5400 | 500 | Nc1ccn(C[C@@H](CO)OCP(=O)(O)O)c(=O)n1 [Cidofovir, cidofovir, reference compound] | – | – | – | – | – |
| 1 | – | 7 | – | CCCCCCCCCCCCCCCCOCCCOP(=O)(O)CO[C@H](CO)Cn1ccc(N)nc1=O [CMX001] | 400 | >2700 | 771 | 92 | 125 |
